Reference: the supplement of paper PMC10627819

What was measured:
Assay in all cases: fitness (endpoint OD595 vs no drug) (fraction); higher = more growth
[1] = system: S. aureus DSM 20231
How it was run: (§1)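 Bacterial growth was followed in 384-well plates seeded at OD595 0.01, with 30 µl per well, or 55 µl for S. pneumoniae, in TSB, LB Lennox or CY at 37 °C. OD595 was read every 30 min for 14 h, and each reading had the first reading subtracted as background. Fitness is the background-corrected optical density at entry into stationary phase divided by the robust mean of the no-drug control wells. This ratio is capped at 1.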

[2] = system: S. aureus Newman
How it was run: as §1

[3] = system: B. subtilis 168
How it was run: as §1

[4] = system: S. pneumoniae D39V
How it was run: as §1

N[C@@H]1CONC1=O [Cycloserine D] + CN(N=O)C(=O)N[C@@H](C=O)[C@@H](O)[C@H](O)[C@H](O)CO [Streptozotocin]
fitness
Conditions | first compound 0.125 µg/mL | first compound 0.25 µg/mL | first compound 0.375 µg/mL | first compound 0.5 µg/mL | first compound 0.75 µg/mL | first compound 1.5 µg/mL
[1], partner 0.15 µg/mL | – | – | 0.822 | – | 0.823 | 0.788
[1], partner 0.3 µg/mL | – | – | 0.867 | – | 0.846 | 0.806
[1], partner 0.6 µg/mL | – | – | 0.609 | – | 0.649 | 0.655
[2], partner 0.15 µg/mL | – | – | 0.833 | – | 0.762 | 0.741
[2], partner 0.3 µg/mL | – | – | 0.665 | – | 0.674 | 0.674
[2], partner 0.6 µg/mL | – | – | 0.607 | – | 0.512 | 0.584
[3], partner 0.15 µg/mL | 0.991 | 0.979 | – | 0.975 | – | –
[3], partner 0.3 µg/mL | 0.963 | 0.98 | – | 0.931 | – | –
[3], partner 0.6 µg/mL | 0.984 | 0.988 | – | 0.958 | – | –

CCCCCCCCCC(=O)N[C@H]1[C@H](Oc2c3cc4cc2Oc2ccc(cc2Cl)[C@@H](O[C@@H]2O[C@H](CO)[C@@H](O)[C@H](O)[C@H]2NC(C)=O)[C@@H]2NC(=O)[C@H](NC(=O)[C@@H]4NC(=O)[C@H]4NC(=O)[C@@H](Cc5ccc(c(Cl)c5)O3)NC(=O)[C@H](N)c3ccc(O)c(c3)Oc3cc(O)cc4c3)c3ccc(O)c(c3)-c3c(O[C@H]4O[C@H](CO)[C@@H](O)[C@H](O)[C@@H]4O)cc(O)cc3[C@@H](C(=O)O)NC2=O)O[C@H](CO)[C@@H](O)[C@@H]1O [Teicoplanin] + Cn1nnc(-c2ccc(-c3ccc(N4C[C@H](CO)OC4=O)cc3F)cn2)n1 [Tedizolid]
fitness, main component drawn
Conditions | first compound 0.1562 µg/mL | first compound 0.3125 µg/mL | first compound 0.625 µg/mL
[1], partner 0.0625 µg/mL | 0.808 | 0.89 | 0.949
[1], partner 0.25 µg/mL | 0.066 | 0.0756 | 0.1
[2], partner 0.0625 µg/mL | ≥ 1 | 0.969 | 0.811
[2], partner 0.125 µg/mL | ≥ 1 | 0.97 | 0.779
[2], partner 0.25 µg/mL | – | 0.391 | 0.163

fitness, [2], one replicate, main component drawn
Conditions | first compound 0.62 µg/mL | first compound 1.24 µg/mL | first compound 2.48 µg/mL
partner 0.0625 µg/mL | 0.883 | 0.789 | 0.474
partner 0.125 µg/mL | 0.853 | 0.812 | 0.627
partner 0.25 µg/mL | 0.447 | 0.402 | 0.361

O=C(O[C@@H]1Cc2c(O)cc(O)cc2O[C@@H]1c1cc(O)c(O)c(O)c1)c1cc(O)c(O)c(O)c1 [EGCG] + CO/N=C(\C(=O)N[C@@H]1C(=O)N2C(C(=O)[O-])=C(C[N+]3(C)CCCC3)CS[C@H]12)c1csc(N)n1 [Cefepime]
fitness
Conditions | first compound 12.5 µg/mL | first compound 25 µg/mL | first compound 50 µg/mL
[1], partner 0.125 µg/mL | 0.736 | 0.725 | –
[1], partner 0.25 µg/mL | 0.634 | 0.563 | 0.583
[1], partner 0.5 µg/mL | 0.616 | 0.576 | 0.587
[2], partner 0.125 µg/mL | 0.789 | 0.722 | 0.72
[2], partner 0.25 µg/mL | 0.736 | 0.685 | 0.678
[2], partner 0.5 µg/mL | 0.656 | 0.724 | 0.657
[4], partner 0.007 µg/mL | 0.958 | 0.951 | 0.985
[4], partner 0.0078 µg/mL | ≥ 1 | 0.874 | 0.939
[4], partner 0.014 µg/mL | 0.998 | 0.987 | 0.998
[4], partner 0.0155 µg/mL | 0.96 | ≥ 1 | 0.931
[4], partner 0.028 µg/mL | 0.928 | 0.979 | 0.973
[4], partner 0.031 µg/mL | 0.733 | 0.716 | 0.853
